Assays:
Format in all cases: cell-based
HT29 cells [1] = experiment: Adenovirus luciferase gene transfer into confluent HT29 cells; settings: for activation of adenovirus gene transfer (luciferase): 100 micromolar, procedure of Example 1 (MOI 50, assay 48 hours later), screen of 1032 NSC library compounds; for activation of adenovirus gene transfer (luciferase activity): MOI 1, 3 or 10, compound 30 nM, 300 nM, 10 uM, 30 uM or 100 uM, 48 hours
Procedure: HT29 cells are grown in 96-well plates. The cells are seeded at near confluency, about 300,000 cells per well, and infected with adenovirus 3-4 days later. […] For screening purposes, cells are grown on plastic. […] The activity of candidate compounds may be also confirmed using polarized monolayers grown on filters. Once confluent, HT29 cells are very difficult to transduce with adenoviral constructs. Fewer than 1 in 100 cells express adenoviral transgenes at multiplicity of infection (MOI) of approximately 50. A replication deficient adenovirus encoding firefly luciferase or the EGFP at an MOI of 50 for each well of cells in low serum medium is applied for 4 hours at 37° C. Confluent HeLa cells are used as a positive control. A set of cells is incubated with virus but no gene transfer activating compound as a negative control. Test drugs are incubated along with the virus. Forty-eight hours later, the cells are assayed for luciferase by standard techniques. Luciferase is assayed using a commercially available kit (Promega) which allows quantitative measurements of adenoviral gene transfer.
(§1) FIGS. 2A and 2B show a comparison of luciferase expression (y-axis, light units) vs. MOI (x-axis) in HeLa and HT29 cells infected with adenovirus under various conditions. For these studies, cells are grown in 96-well plates. The HT29 cells are seeded at near confluency, about 300,000 cells per well, and infected with adenovirus 3-4 days later. The cells are infected with luciferase-expressing, replication-deficient adenovirus at MOIs of 1, 3 or 10 by applying the virus to wells of cells in low serum medium for 4 hours at 37° C. In addition, the cells are incubated with gene transfer activating compound 675865 at a concentration of 30 nM, 300 nM, 10 uM, 30 uM or 100 uM along with the virus. A control set of cells is incubated with virus at MOIs of 1, 3 or 10, but no gene transfer activating compound is included. Forty-eight hours later, the cells are assayed for luciferase activity by standard techniques. […] FIGS. 3A and 3B present data from these experiments in which luciferase expression (y-axis, light units) is plotted vs. compound 675865 concentration (x-axis).
as §1, with “6A” for “2A”, “6B” for “2B”, “143491” for “675865”, “7A” for “3A”, “7B” for “3B”
(§2) Luciferase activity is measured using a commercially available assay kit (Bright-Glo™, Promega) designed for high throughput screening. Briefly, the Bright-Glo™ substrate is dissolved in Bright-Glo™ assay buffer at room temperature. 50 μl of the premixed Bright-Glo™ reagent is directly added to each well of the assay plate. Luminescence is measured in a microluminometer (Harta Instrument, Gaithersburg, Md.).

HT29 cells [2] = experiment: Adenovirus EGFP gene transfer, fluorescence microscopy; settings: 100 micromolar compound, adenovirus EGFP MOI 0.1-10, 4 hours
Procedure: HT29 or HeLa cells are grown in 96-well plates. The HT29 cells are seeded at near confluency, about 300,000 cells per well, and infected with adenovirus 3-4 days later. Confluent HeLa cells are used as a positive control. […] A replication deficient adenovirus encoding the EGFP gene is applied at an MOI of 0.1-10 to wells of cells in low serum medium for 4 hours at 37° C. Gene transfer activating compounds are incubated along with the virus at concentrations of 100 micromolar. Cells are visualized with a fluorescent microscope where green fluorescence indicates EGFP expression. A set of cells is incubated with virus but no gene transfer activating compound.

Calu3 cells = experiment: Adenovirus luciferase gene transfer into Calu3 cells grown on filters or plastic; settings: 40 μm compound; 10 MOI (FIG. 4A)
Procedure: Lung epithelial cells which form tight junctions in vitro, Calu3, are grown on filters (Corning Costar Transwell®—polyester—pore size 0.4 μm) or plastic well allowing apical and basolateral specialization to occur.
Calu3 cells grown as described in Example 9 are incubated with adenovirus at 10 MOI and various compounds at a concentration of 40 micromolar. FIG. 4B indicates luciferase activity measured under these conditions.
Calu3 cells grown as described in Example 9 are incubated with luciferase-expressing adenovirus and various gene transfer activating compounds.
as §2

HT29 cells [3] = experiment: Lentivirus luciferase gene transfer into HT29 cells; settings: MOI 0.002, 0.02 or 0.2, compound 30 nM to 100 uM, 48 hours
Procedure: FIG. 5A show a comparison of luciferase expression (y-axis, light units) vs. MOI (x-axis) in HT29 cells infected with lentivirus under various conditions. For these studies, cells are grown in 96-well plates as described in Example 8. The HT29 cells are seeded at near confluency, about 300,000 cells per well, and infected with a lentivirus vector expressing luciferase 3-4 days later. The cells are infected with lentivirus at MOIs of 0.002, 0.02 or 0.2 by applying the virus to wells of cells in low serum medium for 4 hours at 37° C. In addition, the cells are incubated with gene transfer activating compound 675865 at a concentration of 30 nM, 300 nM, 10 uM, 30 uM or 100 uM along with the virus. A control set of cells is incubated with virus at MOIs of 0.002, 0.02 or 0.2 but no gene transfer activating compound is included. Forty-eight hours later, the cells are assayed for luciferase activity by standard techniques.
FIG. 5B present data from these experiments in which luciferase expression (y-axis, light units) is plotted vs. compound 675865 concentration (x-axis).
as §2, with “50 μl of the premixed Bright-Glo™ reagent is directly added to each well of the assay plate.” left out

HeLa and HT29 cells = experiment: Adeno-associated virus luciferase gene transfer into HeLa and HT29 cells; settings: MOI 2.78, 8.33 or 22, compound 30 nM to 100 uM, 48 hours
Procedure: FIGS. 8A and 8B show a comparison of luciferase expression (y-axis, light units) vs. MOI (x-axis) in HeLa and HT29 cells infected with adeno-associated virus under various conditions. For these studies, cells are grown as described in Example 8. The HT29 cells are seeded at near confluency, about 300,000 cells per well, and infected with adenovirus 3-4 days later. The cells are infected with luciferase-expressing, adeno-associated virus at MOIs of 2.78, 8.33 or 22 by applying the virus to wells of cells in low serum medium for 4 hours at 37° C. In addition, the cells are incubated with gene transfer activating compound 143491 at a concentration of 30 nM, 300 nM, 10 uM, 30 uM or 100 uM along with the virus. A control set of cells is incubated with virus at MOIs of 2.78, 8.33 or 22, but no gene transfer activating compound is included. Forty-eight hours later, the cells are assayed for luciferase activity by standard techniques. Luciferase activity is enhanced in cells treated with compound 143491 compared with controls. […]
Luciferase activity is measured using a commercially available assay kit (Bright-Glo™, Promega) designed for high throughput screening. […] Luminescence is measured in a microluminometer (Harta Instrument, Gaithersburg, Md.).

Compound	activation of adenovirus gene transfer (luciferase) (HT29 cells [1])	other results
CN(C)CCCNc1c2ccccc2nc2ccc(F)cc12.Cl [NSC 109325]	activation of adenovirus gene transfer	
O=C(CC(=O)c1cc(Cl)ccc1O)c1cccnc1 [NSC 73609]	activation of adenovirus gene transfer	
CN(C)C(=O)CCCc1ccc(N(CCCl)CCCl)cc1 [NSC 108613]	activation of adenovirus gene transfer	
CN(C)CCCN=c1c2ccccc2n(C)c2[nH]c(=O)n(C)c(=O)c12 [NSC 373989]	activation of adenovirus gene transfer	
COc1ccc(CC2C(=O)NC(C)C(=O)N(C)C3C(=O)N(C)C(Cc4ccc(O)c(c4)Oc4ccc(cc4)C3O)C(=O)NC(C)C(=O)NC(C)C(=O)N2C)cc1 (stereo not shown) [NSC 259968]	activation of adenovirus gene transfer	
O=C(O)c1ccccc1N=Cc1ccc(N(CCCl)CCCl)cc1 [NSC 101492]	activation of adenovirus gene transfer	
CCCCCCCCCCCCCC[As](=O)(O)O [NSC 106191]	activation of adenovirus gene transfer	
Nc1ncnc2c(C3OC(CO)C(O)C3O)nsc12 (stereo not shown) [NSC 675865]	activation of adenovirus gene transfer	activation of adenovirus gene transfer (luciferase activity) (HT29 cells [1]): activation of adenovirus gene transfer; activation of adenovirus gene transfer (EGFP green fluorescence) (HT29 cells [2]): activation of adenovirus gene transfer; luciferase activity in Calu3 cells infected with luciferase expressing adenovirus (Calu3 cells): increased luciferase activity; luciferase activity, lentivirus vector (HT29 cells [3]): enhancement of luciferase activity
CC1=C(C)C(C#N)(C(=O)CBr)C(=N)O1 (stereo not shown) [NSC 128720]	activation of adenovirus gene transfer	
COc1cccc2c1C(=O)c1c(O)c3c(c(O)c1C2=O)CC(O)(/C(C)=N/O)CC3OC1CC(N)C(O)C(C)O1 (stereo not shown) [NSC 143491]	activation of adenovirus gene transfer	activation of adenovirus gene transfer (luciferase activity) (HT29 cells [1]): activation of adenovirus gene transfer; luciferase activity compared with controls, adeno-associated virus vector (HeLa and HT29 cells): enhanced
